Assay results as given in patent US10344034B2, “Pyrazolopyrimidone or Pyrrolotriazone derivatives, method of preparing same, and pharmaceutical applications thereof” (Shanghai Hengrui Pharmaceutical Co., Ltd., priority 2013, dated 2019).
Read-outs that look alike come from different tables or passages of the source.

Tests used:
[1] = Rabbit pharmacokinetics assay; format: in vivo, New Zealand rabbits; settings: for AUC: read-out: Area under curve AUC; for half-life: read-out: Half-life T1/2 (converted); for MRT: read-out: Residence time MRT
Experimental: Test Example 5. Rabbit Pharmacokinetics Assay of Example 11 of the Present Invention
Rabbits were used as test animals. The plasma concentrations at various times were determined by LC/MS/MS after intragastric administration of the compound of Example 11, and intravenous administration of the compound of Example 11 to rabbits. The pharmacokinetic behavior of the present compound in rabbits was studied, and the pharmacokinetic features were evaluated.
Six (6) healthy New Zealand Rabbits (female) were evenly designated into 2 groups. The animals were purchased from Jie Sijie Corp. Ltd.
An appropriate amount of sample was weighed, and added with 0.5% CMC-Na to form […] suspension upon ultrasonic treatment.
Appropriate amounts of drugs were weighed, and dissolved with 1 ml DMSO and 1 ml of Tween 80. Saline solution was added to the final volume.
Six (6) healthy New Zealand rabbits (female) were evenly designated into 2 groups, and administered by oral gavage or intravenous injection (i.v.) (oral gavage at a dosage of 30 mg/kg with an administration volume of 5 ml/kg, and i.v. at a dosage of 5 mg/kg with an administration volume of 2 ml/kg) after fasting overnight.
0.2 ml of blood was sampled before and 5 minutes, 0.25, 0.5, 1, 2, 4, 8, 11, 24 hours after intravenous administration, collected in a heparinized test tube, and centrifuged at 3500 rpm for 10 minutes to separate the plasma, which was stored at −20° C. Blood was sampled before, and 0.5, 1, 2, 4, 6, 8, 11, and 24 hours after oral administration, and treated the same as that of the intravenous administration group. The content of the test compound in the plasma of rabbits after administration of the compound by oral gavage and intravenous injection was determined by LC/MS/MS.

[2] = Seven-day toxicokinetic evaluation in rats; set-up: species or system SD rats; settings: rat, in vivo; for AUC(0-inf): AUC0-∞; for MRT inf: MRT0-∞
Experimental: Test Example 8. Seven-Day Toxicokinetic Evaluation of the Compound of Example 11 in Rats
SD rats were used as test animals. The plasma concentration at various times was determined by LC/MS/MS after administration of the compound of Example 11 (SHR147280) by oral gavage for 7 days. The compound toxicity in rodents was preliminarily assessed according to the potential toxicity reaction and severity level of the body.
Twenty-four (24) healthy adult SD rats (half female and half male) were evenly designated into 4 groups (6 for each group). The animals were purchased from Shanghai SLAC Laboratory Animal Corp. Ltd (laboratory animal production Certificate No. SCXK (HU) 2012-0002).
An appropriate amount of sample was accurately weighed, and added with some 0.5% CMC-Na to form an uniform suspension upon ultrasonicator grinding treatment, and then diluted to the final volume. The test sample solutions on day 1 and day 7 were kept for the determination of administration concentration of toxicokinetics.
Repeat oral doses were 80, 240, and 720 mg/kg, and administration concentrations were 8, 24, and 72 mg/ml respectively. The dosing volume was 10 ml/kg once daily for 7 days.
The blood was sampled on day 1 and day 7 after administration with sampling time before, and 1, 2, 4, 8 and 24 hours after oral administration on day 1, as well as before, and 1, 2, 4, 8, 24 and 48 hours after oral administration on day 7. The blood sample was collected in a heparinized test tube, and centrifuged to separate the plasma, which was stored at −20° C. The content of the test compound in the plasma of rats after administration of the compound by oral gavage was determined by LC/MS/MS.

[3] = In vivo pharmacodynamics test in rabbit endometriosis model; settings: female, New Zealand, rabbit, in vivo, po
Experimental: (§1) Fifteen (15) healthy New Zealand rabbits (female) were evenly designated into 3 groups.
(§2) Rabbits were adaptive fed and quarantined for seven days, and subcutaneously injected with 30 μg/kg of estradiol benzoate once daily for two days before surgery. When the model was established, rabbits were anesthetized with 3% sodium pentobarbital, and laparotomized sterilely. Then, one side of the uterus was separated and ligated with the uterine mesorectum vessel. Then, a section of the uterus was cut off and put into a warm saline dish, and then dissected longitudinally and the myometrium and endometrium were separated. A section of endometrium (about 0.5 cm by0.5 cm) was seamed to the abdominal wall rich in blood vessels with the intimal surface facing toward the abdominal cavity. Three weeks after endometrium planting, the rabbits were laparotomized to check graft intimal size. […] Each group was administered by oral gavage once a day in a volume of 5 ml/kg, continuously for 28 days after successful modeling. Ultimately, the rabbit was weighed and the volume of ectopic endometrium was measured to evaluate the effect of the present compound on the endometrial activity.

[4] = system: rabbit endometriosis model; assay: as above
Experimental: as §1, §2

[5] = female, New Zealand, plasma, intravenous injection 5 mg/kg
[6] = female, New Zealand, plasma, oral 30 mg/kg

SMILES: CONC(=O)Nc1ccc(-n2nc3c(c2CN(C)C)c(=O)n(-c2ccc(OC)nn2)c(=O)n3Cc2c(F)cccc2F)cc1 [Example 11, 1-(4-(7-(2,6-difluorobenzyl)-3-((dimethylamino)methyl)-5-(6-methoxypyridazin-3-yl)-4,6-dioxo-4,5,6,7-tetrahydro-2H-pyrazolo[3,4-d]pyrimidin-2-yl)phenyl)-3-methoxyurea]
- AUC [1, 5]: 3410 ± 832 ng·h/mL
- half-life [1, 5]: 276 ± 162 min
- MRT [1, 5]: 2.39 ± 0.3 h
- Vd/F ([1]; female, New Zealand, plasma, oral 30 mg/kg, read-out: Apparent volume of distribution Vz/F): 10.7 ± 3.86 L/kg
- AUC [1, 6]: 19000 ± 2310 ng·h/mL
- CL/F ([1]; female, New Zealand, plasma, oral 30 mg/kg, read-out: Clearance rate CL/F): 26.6 ± 3.4 mL/min/kg
- half-life [1, 6]: 274 ± 63.6 min
- Cmax ([1]; female, New Zealand, plasma, oral 30 mg/kg, read-out: Plasma concentration Cmax): 5040 ± 776 ng/mL
- MRT [1, 6]: 3.94 ± 0.55 h
- Apparent volume of distribution Vz/F ([1]; intravenous injection 5 mg/kg): 10948 ± 7749 mL/kg
- Clearance rate CL/F ([1]; intravenous injection 5 mg/kg): 25.3 ± 5.5 mL/min/kg
- NOAEL at 7 days ([2]; both sexes, SD, po): 240 mg/kg
- lethal dose ([2]; both, SD, po, 7 days): 720 mg/kg
- CLz/F ([2]; female, SD, 80 mg/kg): 7.71 mL/min/kg
- CLz/F ([2]; female, SD, 240 mg/kg): 5.82 mL/min/kg
- AUC0-t ([2]; female, SD, po, 80 mg/kg): 282.074 µg·h/mL
- AUC0-∞ ([2]; female, SD, po, 80 mg/kg): 313.468 µg·h/mL
- Cmax ([2]; female, SD, po, 80 mg/kg): 19550 ng/mL
- MRT0-∞ ([2]; female, SD, po, 80 mg/kg): 9.23 h
- Vd/F ([2]; female, SD, po, 80 mg/kg): 2.09 L/kg
- AUC0-t ([2]; female, SD, po, 80 mg/kg, AUC0-t): 173 µg·h/mL
- AUC(0-inf) ([2]; female, SD, po, 80 mg/kg): 174 µg·h/mL
- Cmax ([2]; female, SD, po, 80 mg/kg, Cmax): 17800 ng/mL
- MRT inf ([2]; female, SD, po, 80 mg/kg): 5.82 h
- AUC0-t ([2]; female, SD, po, 240 mg/kg): 790.873 µg·h/mL
- AUC0-∞ ([2]; female, SD, po, 240 mg/kg): 840.45 µg·h/mL
- Cmax ([2]; female, SD, po, 240 mg/kg): 51150 ng/mL
- MRT0-∞ ([2]; female, SD, po, 240 mg/kg): 7.97 h
- Vd/F ([2]; female, SD, po, 240 mg/kg): 2.87 L/kg
- t1/2 ([2]; female, SD, po, 240 mg/kg): 4.26 h
- tmax ([2]; female, SD, po, 240 mg/kg): 6.0 h
- AUC0-t ([2]; female, SD, po, 240 mg/kg, AUC0-t): 639 µg·h/mL
- AUC(0-inf) ([2]; female, SD, po, 240 mg/kg): 690 µg·h/mL
- Cmax ([2]; female, SD, po, 240 mg/kg, Cmax): 41500 ng/mL
- MRT inf ([2]; female, SD, po, 240 mg/kg): 9.63 h
- half-life ([2]; female, SD, po, 240 mg/kg, t1/2): 344 min
- tmax ([2]; female, SD, po, 240 mg/kg, tmax): 8 h
- AUC0-t ([2]; female, SD, po, 720 mg/kg): 2838.65 µg·h/mL
- Cmax ([2]; female, SD, po, 720 mg/kg): 138000 ng/mL
- tmax ([2]; female, SD, po, 720 mg/kg): 24.0 h
- AUC0-t ([2]; female, SD, po, 720 mg/kg, AUC0-t): 1550 µg·h/mL
- Cmax ([2]; female, SD, po, 720 mg/kg, Cmax): 69300 ng/mL
- tmax ([2]; female, SD, po, 720 mg/kg, tmax): 16 h
- potential toxic target organs ([2]; po): marrow hematopoietic system, thymus, heart, liver, lung, spleen, adrenal gland, ovary, and digestion system
- NOAEL at 28 days [3]: 30 mg/kg
- inhibition for the ectopic endometrial volume ([4]; 10 mg/kg oral once a day for 4 weeks): not obvious
- growth of ectopic endometrium ([4]; 30 mg/kg oral once a day for 4 weeks, vs 0.5% CMC-Na control): significantly inhibited
